Reference: patent US10890591B2, “Methods and dose packs for monitoring medication adherence” (Synapse Biosciences, LLC, priority 2016, dated 2021)

How the values were obtained:
[1] = Multiple Marker Experiment 2: urine samples, simulated non-adherence (one marker dose skipped per subject), LC-MS/MS; conditions: for Subject B, Urine Results / Subject C, Urine Results: collected before that day's dose; for Subject B, Urine Results / Subject C, Urine Results / concentration at 8 day: other markers dosed once; for concentration at 8 day: Urine Results, Day 8 sample
[2] = Multiple Marker Experiment 1: saliva samples, marker concentration by LC-MS/MS; conditions: human, in vivo;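 further: mean across four subjects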
Text: (§1) All other markers were obtained from commercial sources. Urine and saliva were collected prior to each day's dosing of marker confirming the presence or absence of markers before the experiment started. […] The presence of all 7 markers at day 8 would confirm that all markers were ingested in the previous 7 day one week period.
(§2) Healthy volunteers with no recent exposure to the markers who were not currently taking prescribed medications, OTC medications or vitamins and supplements were chosen. Exposure to the markers more than one month before starting the experiment was allowed and no dietary restrictions were required. Subjects were given a 7 day blister pack with markers sequenced in the order above. Subjects verbally confirmed they understood the urine and saliva collection procedures. Instructions printed on the marker blister pack instructed subjects to collect urine and saliva each morning before they took the daily dose of marker. They were also instructed to take the daily dose of marker close to the same time each day.

[3] = Multiple Marker Experiment 1: urine samples, adherent with all markers, marker concentration by LC-MS/MS
Text: as §1, §2

[4] = Day 1 sample, collected before that day's dose, Experiment #1, adherent with all markers, each marker dosed once
[5] = Day 2 sample, collected before that day's dose, Experiment #1, adherent with all markers, each marker dosed once
[6] = Day 3 sample, collected before that day's dose, Experiment #1, adherent with all markers, each marker dosed once
[7] = Day 4 sample, collected before that day's dose, Experiment #1, adherent with all markers, each marker dosed once
[8] = Day 5 sample, collected before that day's dose, Experiment #1, adherent with all markers, each marker dosed once
[9] = Day 6 sample, collected before that day's dose, Experiment #1, adherent with all markers, each marker dosed once
[10] = Day 7 sample, collected before that day's dose, Experiment #1, adherent with all markers, each marker dosed once
[11] = Day 8 sample, Experiment #1, adherent with all markers, each marker dosed once
[12] = human, in vivo, Average of Urine Samples
[13] = human, in vivo, Subject B, Urine Results
[14] = human, in vivo, Subject A, Urine Results

COc1ccc2c(c1)[C@]13CCCC[C@@H]1[C@H](C2)N(C)CC3 [DXM, Dextromethorphan]
Subject B, Urine Results ([1]; Day 1 sample, Experiment #2, subject B skipped diphenhydramine on day 5): 0 ng/mL | Subject C, Urine Results ([1]; Day 1 sample, Experiment #2, subject C skipped Loperamide on day 2): 0 ng/mL | Subject B, Urine Results ([1]; Day 2 sample, Experiment #2, subject B skipped diphenhydramine on day 5): 0 ng/mL | Subject C, Urine Results ([1]; Day 2 sample, Experiment #2, subject C skipped Loperamide on day 2): 0 ng/mL | Subject B, Urine Results ([1]; Day 3 sample, Experiment #2, subject B skipped diphenhydramine on day 5): 0 ng/mL | Subject C, Urine Results ([1]; Day 3 sample, Experiment #2, subject C skipped Loperamide on day 2): 0 ng/mL | Subject B, Urine Results ([1]; Day 4 sample, Experiment #2, subject B skipped diphenhydramine on day 5): 2640 ng/mL | Subject C, Urine Results ([1]; Day 4 sample, Experiment #2, subject C skipped Loperamide on day 2): 377 ng/mL | Subject B, Urine Results ([1]; Day 5 sample, Experiment #2, subject B skipped diphenhydramine on day 5): 181 ng/mL | Subject C, Urine Results ([1]; Day 5 sample, Experiment #2, subject C skipped Loperamide on day 2): 40 ng/mL | Subject B, Urine Results ([1]; Day 6 sample, Experiment #2, subject B skipped diphenhydramine on day 5): 14.7 ng/mL | Subject C, Urine Results ([1]; Day 6 sample, Experiment #2, subject C skipped Loperamide on day 2): 1.35 ng/mL | Subject B, Urine Results ([1]; Day 7 sample, Experiment #2, subject B skipped diphenhydramine on day 5): 16.6 ng/mL | Subject C, Urine Results ([1]; Day 7 sample, Experiment #2, subject C skipped Loperamide on day 2): 1.11 ng/mL | course of urine levels relative to dosing ([1]; Experiment 2, days 1-8): zero before dosing, peaked the day after dosing and slowly decreased over time | concentration at 1 day ([1]; human, in vivo): 0 ng/mL | concentration at 2 day ([1]; human, in vivo): 0 ng/mL | concentration at 3 day ([1]; human, in vivo): 0 ng/mL | concentration at 8 day ([1]; human, in vivo, Subject B, Experiment #2, subject B skipped diphenhydramine on day 5): 2.63 ng/mL | concentration at 8 day ([1]; human, in vivo, Subject C, Experiment #2, subject C skipped Loperamide on day 2): 0.15 ng/mL | concentration at 1 day [2]: 0 ng/mL | concentration at 2 day [2]: 0 ng/mL | concentration at 3 day [2]: 0 ng/mL | concentration at 4 day [2]: 8.4 ng/mL | concentration at 5 day [2]: 1.52 ng/mL | concentration at 6 day [2]: 0.501 ng/mL | concentration at 7 day [2]: 0.439 ng/mL | concentration at 8 day [2]: 0.197 ng/mL | Subject A, Urine Results [3, 4]: 0 ng/mL | Subject B, Urine Results [3, 4]: 0 ng/mL | Subject C, Urine Results [3, 4]: 0 ng/m | Subject D, Urine Results [3, 4]: 0 ng/m | Subject A, Urine Results [3, 5]: 0 ng/mL | Subject B, Urine Results [3, 5]: 0 ng/mL | Subject C, Urine Results [3, 5]: 0 ng/m | Subject D, Urine Results [3, 5]: 0 ng/m | Subject A, Urine Results [3, 6]: 0 ng/mL | Subject B, Urine Results [3, 6]: 0 ng/mL | Subject C, Urine Results [3, 6]: 0 ng/m | Subject D, Urine Results [3, 6]: 0 ng/m | Subject A, Urine Results [3, 7]: 146 ng/mL | Subject B, Urine Results [3, 7]: 358 ng/mL | Subject C, Urine Results [3, 7]: 187 ng/m | Subject D, Urine Results [3, 7]: 641 ng/m | Average of Urine Samples ([3]; Day 4 sample, collected before that day's dose, average of subjects A, B, C, D, Experiment 1, each marker dosed once): 333 ng/mL | Subject A, Urine Results [3, 8]: 11.7 ng/mL | Subject B, Urine Results [3, 8]: 31.4 ng/mL | Subject C, Urine Results [3, 8]: 15 ng/m | Subject D, Urine Results [3, 8]: 51.8 ng/m | Average of Urine Samples ([3]; Day 5 sample, collected before that day's dose, average of subjects A, B, C, D, Experiment 1, each marker dosed once): 27.475 ng/mL | Subject A, Urine Results [3, 9]: 3.6 ng/mL | Subject B, Urine Results [3, 9]: 17.8 ng/mL | Subject C, Urine Results [3, 9]: 4.84 ng/m | Subject D, Urine Results [3, 9]: 4.53 ng/m | Average of Urine Samples ([3]; Day 6 sample, collected before that day's dose, average of subjects A, B, C, D, Experiment 1, each marker dosed once): 7.6925 ng/mL | Subject A, Urine Results [3, 10]: 0.987 ng/mL | Subject B, Urine Results [3, 10]: 3.96 ng/mL | Subject C, Urine Results [3, 10]: 2.12 ng/m | Subject D, Urine Results [3, 10]: 2.61 ng/m | Average of Urine Samples ([3]; Day 7 sample, collected before that day's dose, average of subjects A, B, C, D, Experiment 1, each marker dosed once): 2.419 ng/mL | Subject C, Urine Results [3, 11]: 0.787 ng/m | Subject D, Urine Results [3, 11]: 1.26 ng/m | course of urine levels relative to dosing ([3]; Experiment 1, days 1-8): zero before dosing, peaked the day after dosing and slowly decreased over time | concentration at 1 day ([3]; human, in vivo): 0 ng/mL | concentration at 2 day ([3]; human, in vivo): 0 ng/mL | concentration at 3 day ([3]; human, in vivo): 0 ng/mL | concentration at 8 day ([3]; human, in vivo, Average of Urine Samples, Day 8 sample, average of subjects A, B, C, D, Experiment 1, each marker dosed once): 1.49 ng/mL | concentration at 8 day ([3]; human, in vivo, Subject A, Urine Results, Day 8 sample, Experiment #1, adherent with all markers, each marker dosed once): 0.341 ng/mL | concentration at 8 day ([3]; human, in vivo, Subject B, Urine Results, Day 8 sample, Experiment #1, adherent with all markers, each marker dosed once): 3.56 ng/mL

Cc1cc2nc3c(=O)[nH]c(=O)nc-3n(C[C@H](O)[C@H](O)[C@H](O)CO)c2cc1C [Riboflavin]
concentration at 1 day [2]: 85.5 ng/mL | concentration at 2 day [2]: 92 ng/mL | concentration at 3 day [2]: 58.2 ng/mL | concentration at 4 day [2]: 45.5 ng/mL | concentration at 5 day [2]: 37.3 ng/mL | concentration at 6 day [2]: 85.5 ng/mL | concentration at 7 day [2]: 40.8 ng/mL | concentration at 8 day [2]: 43.1 ng/mL | Subject C, Urine Results ([3]; human, in vivo, 1 day): 1210 ng/m | Subject D, Urine Results ([3]; human, in vivo, 1 day): 819 ng/m | Subject C, Urine Results ([3]; human, in vivo, 2 day): 4940 ng/m | Subject D, Urine Results ([3]; human, in vivo, 2 day): 1290 ng/m | Subject C, Urine Results ([3]; human, in vivo, 3 day): 3150 ng/m | Subject D, Urine Results ([3]; human, in vivo, 3 day): 5190 ng/m | Subject C, Urine Results ([3]; human, in vivo, 4 day): 3150 ng/m | Subject D, Urine Results ([3]; human, in vivo, 4 day): 4330 ng/m | Subject C, Urine Results ([3]; human, in vivo, 5 day): 1230 ng/m | Subject D, Urine Results ([3]; human, in vivo, 5 day): 1730 ng/m | Subject C, Urine Results ([3]; human, in vivo, 6 day): 1680 ng/m | Subject D, Urine Results ([3]; human, in vivo, 6 day): 2120 ng/m | Subject C, Urine Results ([3]; human, in vivo, 7 day): 4450 ng/m | Subject D, Urine Results ([3]; human, in vivo, 7 day): 3200 ng/m | Subject C, Urine Results ([3]; human, in vivo, 8 day): 9920 ng/m | Subject D, Urine Results ([3]; human, in vivo, 8 day): 3310 ng/m | concentration at 1 day [3, 12]: 2240 ng/mL | concentration at 2 day [3, 12]: 2490 ng/mL | concentration at 3 day [3, 12]: 2960 ng/mL | concentration at 4 day [3, 12]: 5130 ng/mL | concentration at 5 day [3, 12]: 2110 ng/mL | concentration at 6 day [3, 12]: 2270 ng/mL | concentration at 7 day [3, 12]: 3100 ng/mL | concentration at 8 day [3, 12]: 5710 ng/mL | concentration at 3 day [3, 13]: 3040 ng/mL

CNC(=C[N+](=O)[O-])NCCSCc1ccc(CN(C)C)o1 [Ranitidine]
concentration at 1 day [2]: 0 ng/mL | concentration at 2 day [2]: 16.8 ng/mL | concentration at 3 day [2]: 1.56 ng/mL | concentration at 4 day [2]: 0.562 ng/mL | concentration at 5 day [2]: 0.366 ng/mL | concentration at 6 day [2]: 0.176 ng/mL | concentration at 7 day [2]: 0.0757 ng/mL | concentration at 8 day [2]: 0.048 ng/mL | Subject C, Urine Results ([3]; human, in vivo, 1 day): 0 ng/m | Subject D, Urine Results ([3]; human, in vivo, 1 day): 0 ng/m | Subject C, Urine Results ([3]; human, in vivo, 2 day): 4930 ng/m | Subject D, Urine Results ([3]; human, in vivo, 2 day): 4910 ng/m | Subject C, Urine Results ([3]; human, in vivo, 3 day): 492 ng/m | Subject D, Urine Results ([3]; human, in vivo, 3 day): 300 ng/m | Subject C, Urine Results ([3]; human, in vivo, 4 day): 68.3 ng/m | Subject D, Urine Results ([3]; human, in vivo, 4 day): 51.5 ng/m | Subject C, Urine Results ([3]; human, in vivo, 5 day): 41.9 ng/m | Subject D, Urine Results ([3]; human, in vivo, 5 day): 39.4 ng/m | Subject C, Urine Results ([3]; human, in vivo, 6 day): 39.6 ng/m | Subject D, Urine Results ([3]; human, in vivo, 6 day): 22.6 ng/m | Subject C, Urine Results ([3]; human, in vivo, 7 day): 25.2 ng/m | Subject D, Urine Results ([3]; human, in vivo, 7 day): 14 ng/m | Subject C, Urine Results ([3]; human, in vivo, 8 day): 23.5 ng/m | Subject D, Urine Results ([3]; human, in vivo, 8 day): 12.1 ng/m | concentration at 1 day [3, 12]: 0 ng/mL | concentration at 2 day [3, 12]: 3720 ng/mL | concentration at 3 day [3, 12]: 351 ng/mL | concentration at 4 day [3, 12]: 56.5 ng/mL | concentration at 5 day [3, 12]: 40.7 ng/mL | concentration at 6 day [3, 12]: 34.3 ng/mL | concentration at 7 day [3, 12]: 13.9 ng/mL | concentration at 8 day [3, 12]: 10.4 ng/mL | concentration at 1 day [3, 14]: 0 ng/mL | concentration at 2 day [3, 14]: 801 ng/mL | concentration at 3 day [3, 14]: 156 ng/mL | concentration at 4 day [3, 14]: 63.4 ng/mL | concentration at 5 day [3, 14]: 61.8 ng/mL | concentration at 6 day [3, 14]: 58.5 ng/mL | concentration at 7 day [3, 14]: 11.2 ng/mL | concentration at 8 day [3, 14]: 1.16 ng/mL | concentration at 1 day [3, 13]: 0 ng/mL | concentration at 3 day [3, 13]: 456 ng/mL
